Assay results reported in patent US10112937B2, “P2X7 modulators and methods of use” (Janssen Pharmaceutica NV, priority 2013, dated 2018).

The compounds below were run against human P2X7 (Homo sapiens (Human), UniProt Q99572) (assay: P2X7 antagonism in human PBMCs (IL-1β release after LPS + Bz-ATP, ELISA)). Conditions: human PBMCs, test compound 1 μM.
Type: cell-based
Procedure: P2X7 Antagonism in Human Peripheral Blood Mononuclear Cells (PBMCs) and Human Whole Blood.
Human blood was collected using a blood donor program. PBMCs were isolated from blood using a Ficoll density gradient technique. Briefly, blood was laid on Ficoll solution and centrifuged at RT for 20 minutes at 2000 rpm. The buffy layer (between red blood cells and plasma) was carefully collected by aspiration, washed with PBS and centrifuged again at 1500 rpm for 15 minutes. The resulting cell pellet was washed and plated on 96 well-plates for experiments. For the Human Whole Blood experiments, 150 μl of human blood was platted on 96 well-plates. Lipopolysaccharide (LPS) (30 ng/ml) was added to each well and incubated for 1 hour. Test compounds were then added and incubated for 30 minutes. The P2X7 agonist, 2′(3′)-O-(4-benzoylbenzoyl) adenosine 5′ triphosphate (Bz-ATP) was then added at a final concentration of 0.5 mM (PBMC) or 1 mM (blood). Cells were incubated for an additional 1.5 hours. At that point, supernatant was collected and stored for IL-1β assay using manufacturer's protocol for enzyme-linked immunosorbent assay (ELISA). Data was expressed as percent control, where control is defined as the difference in IL-1β release in LPS+Bz-ATP samples and LPS only samples. Data was plotted as response (% control) versus concentration to generate IC50 values. […] Data are analyzed and graphed on Graphpad Prism 5. For analysis, each concentration point is averaged from triplicate values and the averaged values are plotted on Graphpad Prism.

Sequence of human P2X7 (Q99572 whole entry): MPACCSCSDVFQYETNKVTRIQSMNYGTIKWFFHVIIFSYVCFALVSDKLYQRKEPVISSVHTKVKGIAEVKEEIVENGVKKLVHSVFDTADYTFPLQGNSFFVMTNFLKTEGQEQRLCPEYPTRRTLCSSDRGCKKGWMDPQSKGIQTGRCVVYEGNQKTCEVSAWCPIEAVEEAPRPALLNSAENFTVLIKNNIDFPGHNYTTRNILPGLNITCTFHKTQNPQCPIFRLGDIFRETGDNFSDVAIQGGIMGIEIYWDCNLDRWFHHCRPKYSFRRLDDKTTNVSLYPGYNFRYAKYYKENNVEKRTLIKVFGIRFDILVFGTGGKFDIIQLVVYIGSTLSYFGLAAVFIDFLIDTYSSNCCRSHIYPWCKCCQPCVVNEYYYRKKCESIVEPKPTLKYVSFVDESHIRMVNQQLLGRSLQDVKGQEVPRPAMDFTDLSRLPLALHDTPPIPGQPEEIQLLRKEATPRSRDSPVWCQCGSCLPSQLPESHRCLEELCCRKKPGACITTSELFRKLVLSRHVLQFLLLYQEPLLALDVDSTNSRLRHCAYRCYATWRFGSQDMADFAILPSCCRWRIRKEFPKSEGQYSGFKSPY

Structure (SMILES) | PBMC 1 μM (% control)
Cn1nc(-c2ccccc2)c2c1CN(C(=O)c1cccc(Cl)c1Cl)CC2 [Example 103, 6-[(2,3-Dichlorophenyl)carbonyl]-1-methyl-3-phenyl-4,5,6,7-tetrahydro-1H-pyrazolo[3,4-c]pyridine] | 56.0
O=C(c1ccnc(Cl)c1Cl)N1CCc2c(-c3ccccc3)n[nH]c2C1 [Example 104, 6-[(2,3-Dichloropyridin-4-yl)carbonyl]-3-phenyl-4,5,6,7-tetrahydro-1H-pyrazolo[3,4-c]pyridine] | 8.9
Cn1nc2c(c1-c1ccc(F)cc1)CCN(C(=O)c1cccc(C(F)(F)F)c1Cl)C2 [Example 105, 6-{[2-Chloro-3-(trifluoromethyl)phenyl]carbonyl}-3-(4-fluorophenyl)-2-methyl-4,5,6,7-tetrahydro-2H-pyrazolo[3,4-c]pyridine] | 51.0
Cn1nc(-c2cccnc2)c2c1CN(C(=O)c1cccc(C(F)(F)F)c1Cl)CC2 [Example 108, 6-{[2-Chloro-3-(trifluoromethyl)phenyl]carbonyl}-1-methyl-3-pyridin-3-yl-4,5,6,7-tetrahydro-1H-pyrazolo[3,4-c]pyridine] | 1.1
O=C(c1cccc(C(F)(F)F)c1F)N1CCc2c(nnn2-c2ccccn2)C1 [Example 123, (2-Fluoro-3-(trifluoromethyl)phenyl)(1-(pyridin-2-yl)-6,7-dihydro-1H-[1,2,3]triazolo[4,5-c]pyridin-5(4H)-yl)methanone] | 22.0

Same assay, conditions: human PBMCs, test compound 10 μM

Structure (SMILES) | PBMC 10 μM (% control)
O=C(c1cccc(Cl)c1Cl)N1CCc2c(-c3ccncc3)n[nH]c2C1 [Example 115, 6-[(2,3-Dichlorophenyl)carbonyl]-3-pyridin-4-yl-4,5,6,7-tetrahydro-2H-pyrazolo[3,4-c]pyridine] | −3.3
O=C(c1ccc(F)cc1Cl)N1CCc2c(nnn2-c2ccccn2)C1 [Example 117, (2-Chloro-4-fluorophenyl)(1-(pyridin-2-yl)-6,7-dihydro-1H-[1,2,3]triazolo[4,5-c]pyridin-5(4H)-yl)methanone] | 4.3
CC1Cc2c(nnn2-c2ccccn2)CN1C(=O)c1cccc(Cl)c1Cl (stereo not drawn) [Example 120, 5-[(2,3-Dichlorophenyl)carbonyl]-6-methyl-1-pyridin-2-yl-4,5,6,7-tetrahydro-1H-[1,2,3]triazolo[4,5-c]pyridine] | −3.8
CC1Cc2c(nnn2-c2ccccn2)CN1C(=O)c1ccc(F)c(Cl)c1Cl (stereo not drawn) [Example 121, 5-[(2,3-Dichloro-4-fluorophenyl)carbonyl]-6-methyl-1-pyridin-2-yl-4,5,6,7-tetrahydro-1H-[1,2,3]triazolo[4,5-c]pyridine] | −0.2
CC1Cc2c(nnn2-c2ncccc2F)CN1C(=O)c1cccc(C(F)(F)F)c1Cl (stereo not drawn) [Example 122, 5-{[2-Chloro-3-(trifluoromethyl)phenyl]carbonyl}-1-(3-fluoropyridin-2-yl)-6-methyl-4,5,6,7-tetrahydro-1H-[1,2,3]triazolo[4,5-c]pyridine] | 0.2
Cn1ccc(-n2nnc3c2CCN(C(=O)c2cccc(C(F)(F)F)c2Cl)C3)n1 [Example 127, (2-Chloro-3-(trifluoromethyl)phenyl)(1-(1-methyl-1H-pyrazol-3-yl)-6,7-dihydro-1H-[1,2,3]triazolo[4,5-c]pyridin-5(4H)-yl)methanone] | 9.2
O=C(c1ccc(Cl)cc1F)N1CCc2c(nnn2-c2ccccn2)C1 [Example 129, (4-Chloro-2-fluorophenyl)(1-(pyridin-2-yl)-6,7-dihydro-1H-[1,2,3]triazolo[4,5-c]pyridin-5(4H)-yl)methanone] | 8.4
O=C(c1ccc(F)c(Cl)c1Cl)N1CCc2c(nnn2-c2ccccn2)C1 [Example 130, (2,3-Dichloro-4-fluorophenyl)(1-(pyridin-2-yl)-6,7-dihydro-1H-[1,2,3]triazolo[4,5-c]pyridin-5(4H)-yl)methanone] | 3.7
Cc1c(C(=O)N2CCc3c(nnn3-c3ccccn3)C2)ccc(F)c1F [Example 132, (3,4-Difluoro-2-methylphenyl)(1-(pyridin-2-yl)-6,7-dihydro-1H-[1,2,3]triazolo-[4,5-c]pyridin-5(4H)-yl)methanone] | 3.8
O=C(c1cccc(C(F)(F)F)c1Cl)N1CCc2c(nnn2-c2cccc(F)n2)C1 [Example 135, (2-Chloro-3-(trifluoromethyl)phenyl)(1-(6-fluoropyridin-2-yl)-6,7-dihydro-1H-[1,2,3]triazolo[4,5-c]pyridin-5(4H)-yl)methanone] | 1.7
COc1ccnc(-n2nnc3c2CCN(C(=O)c2cccc(C(F)(F)F)c2Cl)C3)c1 [Example 136, (2-Chloro-3-(trifluoromethyl)phenyl)(1-(4-methoxypyridin-2-yl)-6,7-dihydro-1H-[1,2,3]triazolo[4,5-c]pyridin-5(4H)-yl)methanone] | 5.3
C[C@@H]1c2nnn(-c3ncc(F)cn3)c2CCN1C(=O)c1cccc(C(F)(F)F)c1Cl [Example 158, (R)-(2-chloro-3-(trifluoromethyl)phenyl)(1-(5-fluoropyrimidin-2-yl)-4-methyl-6,7-dihydro-1H-[1,2,3]triazolo[4,5-c]pyridin-5(4H)-yl)methanone] | 1.1
CC1Cc2c(nnn2-c2ncccc2F)CN1C(=O)c1cccc(Cl)c1Cl (stereo not drawn) [Example 161, (2,3-Dichlorophenyl)(1-(3-fluoropyridin-2-yl)-6-methyl-6,7-dihydro-1H-[1,2,3]triazolo[4,5-c]pyridin-5(4H)-yl)methanone] | −0.9
CC1Cc2c(nnn2-c2cc(F)ccn2)CN1C(=O)c1cccc(Cl)c1Cl (stereo not drawn) [Example 173, 5-[(2,3-Dichlorophenyl)carbonyl]-1-(4-fluoropyridin-2-yl)-6-methyl-4,5,6,7-tetrahydro-1H-[1,2,3]triazolo[4,5-c]pyridine] | 8.8
CC1c2nnn(-c3ncc(F)cn3)c2CCN1C(=O)c1cccc(Cl)c1Cl (stereo not drawn) [Example 174, (2,3-Dichlorophenyl)(1-(5-fluoropyrimidin-2-yl)-4-methyl-6,7-dihydro-1H-[1,2,3]triazolo[4,5-c]pyridin-5(4H)-yl)methanone] | 4.2
CC1c2nnn(-c3ncc(F)cn3)c2CCN1C(=O)c1cccc(C(F)(F)F)c1F (stereo not drawn) [Example 175, (2-fluoro-3-(trifluoromethyl)phenyl)(1-(5-fluoropyrimidin-2-yl)-4-methyl-6,7-dihydro-1H-[1,2,3]triazolo[4,5-c]pyridin-5(4H)-yl)methanone] | 4.5
CC1Cc2c(nnn2-c2cc(F)ccn2)CN1C(=O)c1cccc(C(F)(F)F)c1Cl (stereo not drawn) [Example 176, (2-Chloro-3-(trifluoromethyl)phenyl)(1-(4-fluoropyridin-2-yl)-6-methyl-6,7-dihydro-1H-[1,2,3]triazolo[4,5-c]pyridin-5(4H)-yl)methanone] | 7.3
CC1c2nnn(-c3cncnc3)c2CCN1C(=O)c1cccc(C(F)(F)F)c1Cl (stereo not drawn) [Example 177, (2-Chloro-3-(trifluoromethyl)phenyl)(4-methyl-1-(pyrimidin-5-yl)-6,7-dihydro-1H-[1,2,3]triazolo[4,5-c]pyridin-5(4H)-yl)methanone] | 8.6
Cc1cc(C)nc(-n2nnc3c2CCN(C(=O)c2cccc(Cl)c2Cl)C3C)n1 (stereo not drawn) [Example 179, (2,3-dichlorophenyl)(1-(4,6-dimethylpyrimidin-2-yl)-4-methyl-6,7-dihydro-1H-[1,2,3]triazolo[4,5-c]pyridin-5(4H)-yl)methanone] | −4.3
Cc1cncc(-n2nnc3c2CCN(C(=O)c2cccc(Cl)c2Cl)C3C)n1 (stereo not drawn) [Example 180, (2,3-dichlorophenyl)(4-methyl-1-(6-methylpyrazin-2-yl)-6,7-dihydro-1H-[1,2,3]triazolo[4,5-c]pyridin-5(4H)-yl)methanone] | −3.7
CCc1nc2c(n1-c1ccccc1)CCN(C(=O)c1cccc(C(F)(F)F)c1Cl)C2C (stereo not drawn) [Example 184, (2-Chloro-3-(trifluoromethyl)phenyl)(2-ethyl-4-methyl-1-phenyl-6,7-dihydro-1H-imidazo[4,5-c]pyridin-5(4H)-yl)methanone] | −0.7
CC1Cc2c(nnn2-c2ccn[nH]2)CN1C(=O)c1cccc(C(F)(F)F)c1F (stereo not drawn) [Example 189, (2-fluoro-3-(trifluoromethyl)phenyl)(6-methyl-1-(1H-pyrazol-3-yl)-6,7-dihydro-1H-[1,2,3]triazolo[4,5-c]pyridin-5(4H)-yl)methanone] | 0.5
CC1Cc2c(nnn2-c2ncc(F)cn2)CN1C(=O)c1cccc(C(F)(F)F)c1Cl (stereo not drawn) [Example 200, 5-{[2-Chloro-3-(trifluoromethyl)phenyl]carbonyl}-1-(5-fluoropyrimidin-2-yl)-6-methyl-4,5,6,7-tetrahydro-1H-[1,2,3]triazolo[4,5-c]pyridine] | 3.2
CC1Cc2c(nnn2-c2ncc(F)cn2)CN1C(=O)c1cccc(Cl)c1Cl (stereo not drawn) [Example 203, 5-[(2,3-Dichlorophenyl)carbonyl]-1-(5-fluoropyrimidin-2-yl)-6-methyl-4,5,6,7-tetrahydro-1H-[1,2,3]triazolo[4,5-c]pyridine] | 0.6
Cc1c(C(=O)N2Cc3nnn(-c4ncc(F)cn4)c3CC2C)cccc1C(F)(F)F (stereo not drawn) [Example 206, 1-(5-Fluoropyrimidin-2-yl)-6-methyl-5-{[2-methyl-3-(trifluoromethyl)phenyl]carbonyl}-4,5,6,7-tetrahydro-1H-[1,2,3]triazolo[4,5-c]pyridine] | −1.0
